Reference: US20090012087A1, “New Aza-Bicyclohexane Compounds Useful As Inhibitors Of Thrombin” (ASTRAZENECA AB, priority 2007, published 2009)
Structures can show the parent of a compound that is named as a salt.

Target: T1, Human α-thrombin (Homo sapiens, UniProt P00734)
T1 construct: Human α-thrombin; purchased Sigma Chemical Co. or Hematologic Technologies
Assay: Test A: Determination of Thrombin Inhibition with a Chromogenic, Robotic Assay
Assay type: biochemical
Conditions: chromogenic substrate S-2366 0.30 mmol/L, α-thrombin 0.020 NIHU/mL, 40 minutes incubation at 37° C.
Description: Determination of Thrombin Inhibition with a Chromogenic, Robotic Assay
The thrombin inhibitor potency is measured with a chromogenic substrate method, in a Plato 3300 robotic microplate processor (Rosys AG, CH-8634 Hombrechtikon, Switzerland), using 96-well, half volume microtitre plates (Costar, Cambridge, Mass., USA; Cat No 3690). Stock solutions of test substance in DMSO (72 μL), 0.1-1 mmol/L, are diluted serially 1:3 (24+48 μL) with DMSO to obtain ten different concentrations, which are analysed as samples in the assay. 2 μL of test sample is diluted with 124 μL assay buffer, 12 μL of chromogenic substrate solution (S-2366, Chromogenix, Mölndal, Sweden) in assay buffer and finally 12 μL of α-thrombin solution (Human α-thrombin, Sigma Chemical Co. or Hematologic Technologies) in assay buffer, are added, and the samples mixed. The final assay concentrations are: test substance 0.00068-133 μmol/L, S-2366 0.30 mmol/L, α-thrombin 0.020 NIHU/mL. The linear absorbance increment during 40 minutes incubation at 37° C. is used for calculation of percentage inhibition for the test samples, as compared to blanks without inhibitor.

| Structure (SMILES) | IC50 [nM] |
| --- | --- |
| CC(C)(C)OC[C@@H](O)C(=O)N1CC2CC1(C(=O)NCc1cc(Cl)ccc1-n1cnnn1)C2 [Example 66, 2-((R)-3-tert-Butoxy-2-hydroxy-propionyl)-2-aza-bicyclo[2.1.1]hexane-1-carboxylic acid 5-chloro-2-tetrazol-1-yl-benzylamide] | 67 |
| CC(C)(C1CC1)C(O)C(=O)N1[C@@H]2C[C@@H]2C[C@H]1C(=O)NCc1cc(Cl)ccc1-n1cnnn1 (stereo partly drawn) [Example 60, (1R,3S,5R)-2-(3-Cyclopropyl-2-hydroxy-3-methyl-butyryl)-2-aza-bicyclo[3.1.0]hexane-3-carboxylic acid 5-chloro-2-tetrazol-1-yl-benzylamide] | 14 |
| O=C(NCc1cc(Cl)ccc1-n1cnnn1)[C@@H]1[C@H]2C[C@H]2CN1C(=O)[C@H]1COCCN1 [Example 75, (1S,2S,5R)-3-((R)-Morpholine-3-carbonyl)-3-aza-bicyclo[3.1.0]hexane-2-carboxylic acid 5-chloro-2-tetrazol-1-yl-benzylamide acetate] | 650 |
| O=C(NCc1cc(Cl)ccc1-n1cnnn1)[C@@H]1[C@H]2C[C@H]2CN1C(=O)C(O)Cn1cncn1 (stereo partly drawn) [Example 52, (1S,2S,5R)-3-(2-Hydroxy-3-1,2,4-triazol-1-yl-propionyl)-3-aza-bicyclo[3.1.0]hexane-2-carboxylic acid 5-chloro-2-tetrazol-1-yl-benzylamide] | 570 |
| NC(C(=O)N1C[C@@H]2C[C@@H]2[C@H]1C(=O)NCc1cc(Cl)ccc1-n1cnnn1)c1ccccc1F (stereo partly drawn) [Example 74, (1S,2S,5R)-3-[2-Amino-2-(2-fluoro-phenyl)-acetyl]-3-aza-bicyclo[3.1.0]hexane-2-carboxylic acid 5-chloro-2-tetrazol-1-yl-benzylamide] | 29 |
| NC(C(=O)N1[C@H](C(=O)NCc2cc(Cl)ccc2-n2cnnn2)C[C@@H]2C[C@@H]21)C1CCS(=O)(=O)CC1 (stereo partly drawn) [Example 72, (1S,3S,5S)-2-[2-Amino-2-(1,1-dioxo-hexahydro-1λ^6-thiopyran-4-yl)-acetyl]-2-aza-bicyclo[3.1.0]hexane-3-carboxylic acid 5-chloro-2-tetrazol-1-yl-benzylamide] | 240 |

The next compounds have a lower IC50 than those just listed; values first:

| IC50 [nM] | Structure (SMILES) |
| --- | --- |
| 7 | O=C([C@H](O)C1CCCCC1)N1CC[C@@H]2C[C@@]21C(=O)NCc1cc(Cl)ccc1-n1cnnn1 [Example 27, (1S,5R)-2-((R)-2-Cyclohexyl-2-hydroxy-acetyl)-2-aza-bicyclo[3.1.0]hexane-1-carboxylic acid-5-chloro-2-tetrazol-1-yl-benzylamide] |
| 5 | N[C@@H](C(=O)N1[C@H](C(=O)NCc2cc(Cl)ccc2-n2cnnn2)C[C@@H]2C[C@@H]21)c1cccc(Cl)c1 [Example 71, (1S,3S,5S)-2-[(R)-2-Amino-2-(3-chloro-phenyl)-acetyl]-2-aza-bicyclo[3.1.0]hexane-3-carboxylic acid 5-chloro-2-tetrazol-1-yl-benzylamide] |
| 4 | O=C(NCc1cc(Cl)ccc1-n1cnnn1)[C@@H]1C[C@@H]2C[C@@H]2N1C(=O)[C@H](O)c1cc(Cl)cc(OC(F)F)c1 [Example 37, (1S,3S,5S)-2-[(R)-2-(3-Chloro-5-difluoromethoxy-phenyl)-2-hydroxy-acetyl]-2-aza-bicyclo[3.1.0]hexane-3-carboxylic acid 5-chloro-2-tetrazol-1-yl-benzylamide] |
| 4 | CC(C)(C)C[C@@H](N)C(=O)N1[C@@H]2C[C@@H]2C[C@H]1C(=O)NCc1cc(Cl)ccc1-n1cnnn1 [Example 19, (1R,3S,5R)-2-((R)-2-Amino-4,4-dimethyl-pentanoyl)-2-aza-bicyclo[3.1.0]hexane-3-carboxylic acid 5-chloro-2-tetrazol-1-yl-benzylamide hydrochloride] |
